The results in this text go back to ChEMBL document CHEMBL1201862, “PubChem BioAssay data set” (2004).

The GI50 is the concentration giving 50% growth inhibition.

Each structure is given as a SMILES string.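 A five-concentration, 48-hour dose response in 96-well plates underlies each endpoint, interpolated linearly between surrounding concentrations. GI50 = concentration required for 50% inhibition of growth.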 Active and inactive are the calls of the source. Cut-off read from the data, not from the text of the source: active = GI50 up to about 1.1 µM and inactive = higher.

Test systems include A498; EKVX; HL-60; HOP-62; HOP-92; K562; KM12; LXFL 529; MOLT-4; NCI-H23; NCI-H522; OVCAR-3; OVCAR-8; SR; UACC-257; SK-MEL-2; Hs-578T; MDA-N; NCI/ADR-RES; PC-3.
Holding throughout (test): DTP human tumour cell line panel, 48 h

As to `COc1ccc(C(=O)CC2=Nc3nnc(CCCCCCCc4nnc5n4C(=O)C(CC(=O)c4ccc(OC)cc4)=N5)n3C2=O)cc1`, the GI50 in the assay with A498, with EKVX, with HL-60, in the assay with HOP-62, in the assay on HOP-92 and with K562 was > 100 µM (inactive) each time. For the same compound, the GI50 in the assay with KM12, in the assay with LXFL 529, with MOLT-4, in the assay with NCI-H23, in the assay with NCI-H522 and with OVCAR-3 was > 100 µM (inactive) in each case. Besides, the GI50 in the assay with OVCAR-8, with SR and in the assay on UACC-257 was > 100 µM (inactive) throughout.

As for `CCOC(OC1=C(C#N)CCCC1)C(CC)[Se]c1ccccc1` (configuration not stated), the GI50 was 13.6 µM (inactive) with A498; 24.4 µM (inactive) with EKVX; 10.1 µM (inactive) with HL-60; 59.7 µM (inactive) with HOP-62; 25 µM (inactive) in the assay with HOP-92; 38.9 µM (inactive) in the assay on K562. Also, the GI50 in the assay with KM12 is > 100 µM (inactive); in the assay with LXFL 529, 19.4 µM (inactive); in the assay on MOLT-4, 20.7 µM (inactive); in the assay with NCI-H23 it was 14.3 µM (inactive); with NCI-H522, 14.7 µM (inactive); in the assay with OVCAR-3, 19.9 µM (inactive). Further, the GI50 in the assay with OVCAR-8 was 16.8 µM (inactive); with SK-MEL-2 it was 29.4 µM (inactive); in the assay with SR it was 7.8 µM (inactive); in the assay with UACC-257, 46.7 µM (inactive).

Consider `COc1cc2c(cc1OC)C(C#N)N(C(=O)c1ccccc1)C=C2OC(=O)c1ccccc1` (configuration not stated), for which the GI50 in the assay with EKVX is 28.7 µM (inactive); in the assay with HL-60, > 100 µM (inactive); with HOP-62 it was 17.6 µM (inactive); with HOP-92 it was 27 µM (inactive); in the assay on K562, 32.7 µM (inactive); in the assay with KM12, 34.4 µM (inactive). The GI50 is 20.6 µM (inactive) in the assay with LXFL 529; 77.8 µM (inactive) in the assay on MOLT-4; 44.9 µM (inactive) in the assay with NCI-H23; 17.2 µM (inactive) in the assay on NCI-H522; 21.3 µM (inactive) in the assay on OVCAR-3; 27.9 µM (inactive) in the assay with OVCAR-8. Besides, the GI50 in the assay with SK-MEL-2 was 22.6 µM (inactive); in the assay with SR it was 61.5 µM (inactive); with UACC-257 it was 23.4 µM (inactive).

Turning to `CCOC(=O)C(Cc1ccccc1)NC(=O)c1ccc(/N=N/N(C)C)cc1` (configuration not stated), the GI50 with A498, in the assay with EKVX, in the assay on HL-60, with HOP-62, with K562 and in the assay with KM12 was > 100 µM (inactive) in each case. The GI50 in the assay on LXFL 529, in the assay with MOLT-4, in the assay on NCI-H23, in the assay with NCI-H522, in the assay with OVCAR-3 and in the assay with OVCAR-8 was > 100 µM (inactive) in each case. Further, the GI50 with SK-MEL-2, in the assay on SR and in the assay on UACC-257 was > 100 µM (inactive) each time.

`COC(=O)C1=CCC2c3[nH]c4ccccc4c3CCN2C1` (configuration not stated): the GI50 with EKVX was 343 µM (inactive); with HL-60, > 354 µM (inactive); in the assay on HOP-62, > 354 µM (inactive); in the assay with HOP-92 it was > 354 µM (inactive); in the assay on K562, > 354 µM (inactive); in the assay on KM12 it was > 354 µM (inactive). The GI50 in the assay on LXFL 529 was > 354 µM (inactive); in the assay with MOLT-4, > 354 µM (inactive); in the assay with NCI-H23, > 354 µM (inactive); in the assay with NCI-H522, 154 µM (inactive); in the assay with OVCAR-3, 275 µM (inactive); with OVCAR-8, > 354 µM (inactive). Besides, the GI50 with SK-MEL-2 was > 354 µM (inactive); in the assay on SR, > 354 µM (inactive); with UACC-257, 169 µM (inactive).

As to `C/C=C(/CCCCNCCCC)[Si](C)(C)C`, the GI50 is 15.5 µM (inactive) in the assay on A498; 12.4 µM (inactive) in the assay with EKVX; 6.64 µM (inactive) with HL-60; 6.38 µM (inactive) in the assay with HOP-92; 17.6 µM (inactive) in the assay on K562; 14.5 µM (inactive) in the assay on KM12. Besides, the GI50 with LXFL 529 is 15.9 µM (inactive); with MOLT-4, 11.4 µM (inactive); in the assay with NCI-H23 it was 16.1 µM (inactive); in the assay on NCI-H522, 11.9 µM (inactive); in the assay on OVCAR-3 it was 14.5 µM (inactive); in the assay with OVCAR-8 it was 15.7 µM (inactive). The GI50 in the assay with SK-MEL-2 is 18.7 µM (inactive); with SR, 13.4 µM (inactive); in the assay on UACC-257, 15.2 µM (inactive).

Take `Nc1nc2c(N)cc(C(F)(F)F)cc2nc1-c1ccccc1`: the GI50 in the assay on A498 is > 100 µM (inactive); with EKVX, 4 µM (inactive); with HL-60 it was 1.17 µM (inactive); in the assay with HOP-62 it was > 100 µM (inactive); in the assay on HOP-92, > 100 µM (inactive); with K562 it was > 100 µM (inactive). In addition, the GI50 with KM12 was > 100 µM (inactive); with LXFL 529, 64.9 µM (inactive); in the assay on MOLT-4 it was 38.4 µM (inactive); in the assay on NCI-H23 it was > 100 µM (inactive); in the assay on NCI-H522, 85.3 µM (inactive); with OVCAR-3, > 100 µM (inactive). The GI50 with OVCAR-8, with SK-MEL-2, in the assay with SR and in the assay on UACC-257 was > 100 µM (inactive) throughout.

In the case of `COc1ccc2nccc(NCCCN3CCN(CCCNc4ccnc5ccc(OC)cc45)CC3)c2c1`, the GI50 with A498 is 2.58 µM (inactive); in the assay with EKVX, 1.34 µM (inactive); in the assay with HL-60, 0.0953 µM (active); in the assay on HOP-62 it was 0.966 µM (active); with HOP-92, 0.226 µM (active); with Hs-578T, 0.237 µM (active). Also, the GI50 with K562 was 0.228 µM (active); in the assay with KM12, 0.357 µM (active); in the assay with LXFL 529, 0.179 µM (active); with MDA-N, 0.0881 µM (active); in the assay with MOLT-4, 0.107 µM (active); in the assay with NCI-H23, 0.51 µM (active). Also, the GI50 in the assay on NCI-H522 was 0.0334 µM (active); with NCI/ADR-RES, 18.2 µM (inactive); in the assay with OVCAR-3 it was 1.22 µM (inactive); in the assay with OVCAR-8 it was 0.612 µM (active); with PC-3, 0.44 µM (active); with SK-MEL-2, 1.25 µM (inactive). The values for the GI50 in the assay on SR and in the assay with UACC-257 were 0.505 µM (active) and 1.04 µM (active), respectively.

Turning to `CCc1cccc(C(C)C)c1NC(=O)C(=O)C1C(=O)NC(=O)NC1=O`, the GI50 with A498, in the assay with EKVX, with HL-60, with HOP-62, with HOP-92 and in the assay on K562 was > 100 µM (inactive) each time. Also, the GI50 in the assay with KM12, in the assay on LXFL 529, with NCI-H23, with NCI-H522, in the assay with OVCAR-3 and with OVCAR-8 was > 100 µM (inactive) throughout. In addition, the GI50 in the assay with SR and in the assay with UACC-257 was > 100 µM (inactive) throughout.

For the compound `CCOC(OC1=C(C#N)CCC1)C(C)[Se]c1ccccc1` (configuration not stated), the GI50 with A498 was > 100 µM (inactive); in the assay with EKVX, 30.5 µM (inactive); with HL-60, 21 µM (inactive); in the assay with HOP-62, > 100 µM (inactive); in the assay with HOP-92, 24.4 µM (inactive); in the assay with K562 it was 55.6 µM (inactive). The GI50 is 92.9 µM (inactive) in the assay with KM12; 17.2 µM (inactive) with LXFL 529; 18 µM (inactive) in the assay with MOLT-4; 12.9 µM (inactive) in the assay on NCI-H23; 13.5 µM (inactive) in the assay on NCI-H522; 18.1 µM (inactive) in the assay with OVCAR-3. Further, the GI50 with OVCAR-8 is 18.7 µM (inactive); in the assay on SK-MEL-2, 16.8 µM (inactive); in the assay with SR, 11.6 µM (inactive); in the assay with UACC-257 it was 62.8 µM (inactive).

For `CC1CC(=O)C(C(O)CC2CC(=O)N(c3ccccc3)C(=O)C2)C(C)C1` (configuration not stated), the GI50 in the assay with A498, in the assay with EKVX, with HL-60, in the assay on HOP-62, with HOP-92 and in the assay with K562 was > 100 µM (inactive) in each case. For the same compound, the GI50 in the assay with KM12, in the assay on LXFL 529, in the assay on MOLT-4, in the assay with NCI-H23, in the assay with NCI-H522 and with OVCAR-3 was > 100 µM (inactive) throughout. For the same compound, the GI50 in the assay with OVCAR-8, in the assay on SR and in the assay with UACC-257 was > 100 µM (inactive) each time.

`O=C(CSc1nc(-c2ccccc2)c(-c2ccccc2)[nH]1)NNC(=S)Nc1ccccc1`: the GI50 is > 100 µM (inactive) with A498; 0.414 µM (active) in the assay with EKVX; 22.8 µM (inactive) with HL-60; > 100 µM (inactive) in the assay on HOP-62; 36.2 µM (inactive) with HOP-92; > 100 µM (inactive) in the assay on KM12. Moreover, the GI50 was > 100 µM (inactive) in the assay on LXFL 529; 33.7 µM (inactive) in the assay with MOLT-4; > 100 µM (inactive) in the assay on NCI-H23; 19.2 µM (inactive) in the assay with NCI-H522; 59.8 µM (inactive) with OVCAR-3; 46.7 µM (inactive) in the assay with OVCAR-8. The GI50 in the assay on SK-MEL-2 was > 100 µM (inactive); with SR, 57.5 µM (inactive); with UACC-257, > 100 µM (inactive).
